Consider 7 compounds from ChEMBL document CHEMBL1201862, “PubChem BioAssay data set” (2004).

In experiment [1] the target is Muscarinic acetylcholine receptor M1 (Rattus norvegicus, UniProt P08482). Description: concentration-dependent potentiation of ACh at M1 – cell-based, calcium mobilization, CHO-K1, ACh EC20, dose response (AID 2425). Format: functional.
The nature of experiment [2]: Dd2 parasite growth inhibition in erythrocytes – SYBR Green, dry powder samples, set 4, dose response (AID 1159572). Format: functional, cell-based.
Experiment [3] in a line: decrease of insulin promoter-GFP reporter – imaging, high-content screening, mouse beta cells (AID 1628). Format: functional. The following applies: MIN6.
Experiment [4] relates to Streptococcus sp. 'group A'. Description: Streptococcus pyogenes SK(-)GAS viability under kanamycin – luminescence, BacTiterGlo, confirmation, counter-screen for streptokinase expression inhibitor project, dose response (AID 1900). It is filed as functional, organism-based.
Experiment [5] in a line: MIN6 cell viability loss – mouse insulinoma, cytotoxicity control, dose response (AID 2122).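 Also: confirmatory high-throughput counterscreen run to flag cytotoxic compounds.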 It is filed as functional.
Experiment [6] in a line: Trypanosoma cruzi growth suppression in host cells – NIH3T3 host cells, beta-gal luminescence, confirmation (AID 2044).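 Also: intracellular parasites grown in NIH/3T3 mouse fibroblasts as host cells; luminescent beta-galactosidase reporter signal from transgenic T. cruzi replicating inside host cells; inhibitors lower the luminescence signal.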 Format: functional, cell-based.
For experiment [7], the target named is T1, Galanin receptor type 2 (Homo sapiens, UniProt O43603).
T1 sequence (O43603 whole entry): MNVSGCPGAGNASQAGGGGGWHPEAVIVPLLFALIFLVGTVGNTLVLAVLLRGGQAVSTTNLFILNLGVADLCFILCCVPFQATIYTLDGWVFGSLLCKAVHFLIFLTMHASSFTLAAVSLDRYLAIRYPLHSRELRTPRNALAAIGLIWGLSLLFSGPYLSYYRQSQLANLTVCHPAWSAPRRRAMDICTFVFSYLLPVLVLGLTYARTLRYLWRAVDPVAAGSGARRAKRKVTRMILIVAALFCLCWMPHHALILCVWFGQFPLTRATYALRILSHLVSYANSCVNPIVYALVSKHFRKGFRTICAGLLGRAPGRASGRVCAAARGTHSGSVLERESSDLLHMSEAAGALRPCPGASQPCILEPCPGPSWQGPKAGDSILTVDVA
Description: Dose Response cell-based high-throughput screening assay to identify agonists of galanin receptor 2 (GALR2). [Related pubchem assays: 864 ]. Format: functional.

Experiment [8] in a line: NIH3T3 cell viability loss – ATP luminescence, mouse fibroblasts, counter-screen, dose response (AID 2010).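 Also: cells exposed to compound for about 90 hours before reading.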 It is filed as functional, cell-based. (The purpose of a counterscreen is to sort out artefacts and off-target activity.)
Experiment [9] concerns Streptococcus. Nature of the experiment: GAS UMAA2166 growth inhibition – luminescence, BacTiterGlo, counter-screen for streptokinase expression inhibitor project, dose response (AID 1915).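 Also: potency for reduction of bacterial viability or growth.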 Format: functional, organism-based.
The test system of experiment [10] is INS1. Nature of the experiment: INS-1E survival protection against cytokine death – cell-based, luminescence, retest, dose response (AID 449756).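 Also: cell death triggered by IL-1 beta plus TNF-alpha plus IFN-gamma mixture; protective hits raise ATP signal compared with cytokine alone wells.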 It is filed as functional. Conditions: Rattus norvegicus.
A short description of experiment [11]: reduction of Shn3 3'UTR-driven luciferase in osteoblasts – cell-based, Clone20 osteoblasts, firefly luciferase, cherry-picked, dose response (AID 624132).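 Also: firefly luciferase luminescence from reporter carrying the Shn3 3'UTR in osteoblasts.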 It is filed as functional.
Experiment [12] can be described thus: loss of viability in HepG2 cells – cell-based, CellTiter-Glo, cherry-picked, cytotoxicity control for Shn3 inhibitor project, dose response (AID 624134). It is filed as functional. In general terms: Cellular ATP, detected with luciferase, serves as a proxy for viable cell number.
The nature of experiment [13]: non-specific 3'UTR reporter inhibition in Clone20-Shn3RL – cell-based, Renilla luciferase, cherry-picked, counter-screen for Shn3 inhibitor project, dose response (AID 624133). It is filed as functional.
Experiment [14] concerns the target G-protein coupled receptor 183 (Homo sapiens, UniProt P32249). Description: SAR confirmation of small molecule antagonists of the EBI2 receptor via a luminescent beta-arrestin assa. It is filed as functional.
Experiment [15] in a line: CellTiter-Glo luminescence survival assay, SW480 colon tumor line, concentration-response curve, half-maximal inhibitory concentration (AID 1117338). It is filed as functional.
Experiment [16] in a line: RKO cell viability reduction, dose response, CellTiter-Glo luminescence (AID 1117322). Format: functional.
Experiment [17] in a line: cytotoxicity toward HCT116 cells – cell-based, CellTiter-Glo luminescence, IC50, dose response (AID 1117332). It is filed as functional. Conditions: HCT-116.
The nature of experiment [18]: SNU-C1 cell viability reduction, dose response, CellTiter-Glo luminescence (AID 1117323). Format: functional, cell-based.
Experiment [19] can be described thus: cytotoxicity toward Colo320 cells – cell-based, CellTiter-Glo luminescence, IC50, dose response (AID 1117334). Format: functional. The following applies: COLO 320.
A short description of experiment [20]: cytotoxicity toward HT-29 cells – cell-based, CellTiter-Glo luminescence, IC50, dose response (AID 1117330). Format: functional.
A short description of experiment [21]: Reduced DLD-1 viability, concentration-response, CellTiter-Glo luminescence (AID 1117352). It is filed as functional.
A short description of experiment [22]: HCT116 cell viability decrease, GSK3B pretreatment – CellTiter-Glo, IC50, dose response (AID 1117339). It is filed as functional. The following applies: HCT-116.
A short description of experiment [23]: M. tuberculosis growth inhibition, HTS (AID 449762). It is filed as functional.
For experiment [24], the target named is Sphingosine 1-phosphate receptor 2 (Homo sapiens, UniProt O95136). Description: Dose Response Cell Based Assay for Agonists of the S1P2 Receptor of Purchased Analogues. [Related pubchem assays: 729, 843, 854, 736 ]. It is filed as functional.

The source made the active and inactive calls.

Sequence of G-protein coupled receptor 183 (P32249 whole entry): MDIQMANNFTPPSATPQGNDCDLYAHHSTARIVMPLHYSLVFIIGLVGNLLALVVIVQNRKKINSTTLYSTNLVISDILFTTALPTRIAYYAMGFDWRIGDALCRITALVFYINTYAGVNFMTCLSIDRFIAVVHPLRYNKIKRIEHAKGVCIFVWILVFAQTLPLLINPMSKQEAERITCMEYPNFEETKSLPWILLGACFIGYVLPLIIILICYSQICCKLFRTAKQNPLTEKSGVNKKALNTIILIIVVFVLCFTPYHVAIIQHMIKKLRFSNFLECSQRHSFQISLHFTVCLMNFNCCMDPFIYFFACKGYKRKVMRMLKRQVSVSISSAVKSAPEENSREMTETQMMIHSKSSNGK
Sequence of Muscarinic acetylcholine receptor M1 (P08482 whole entry): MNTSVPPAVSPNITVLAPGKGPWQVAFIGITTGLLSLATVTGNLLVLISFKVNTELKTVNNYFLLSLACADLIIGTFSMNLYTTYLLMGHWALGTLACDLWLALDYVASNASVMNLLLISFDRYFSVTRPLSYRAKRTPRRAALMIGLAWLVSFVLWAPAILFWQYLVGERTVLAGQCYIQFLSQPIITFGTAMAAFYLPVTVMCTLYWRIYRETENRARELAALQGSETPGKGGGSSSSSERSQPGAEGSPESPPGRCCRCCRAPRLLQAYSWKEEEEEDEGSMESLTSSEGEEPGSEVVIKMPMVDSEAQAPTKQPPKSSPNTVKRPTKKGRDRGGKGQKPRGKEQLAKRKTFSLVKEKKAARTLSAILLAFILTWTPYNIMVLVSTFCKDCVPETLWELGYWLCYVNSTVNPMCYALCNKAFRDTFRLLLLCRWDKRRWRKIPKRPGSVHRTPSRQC
Sequence of Sphingosine 1-phosphate receptor 2 (O95136 whole entry): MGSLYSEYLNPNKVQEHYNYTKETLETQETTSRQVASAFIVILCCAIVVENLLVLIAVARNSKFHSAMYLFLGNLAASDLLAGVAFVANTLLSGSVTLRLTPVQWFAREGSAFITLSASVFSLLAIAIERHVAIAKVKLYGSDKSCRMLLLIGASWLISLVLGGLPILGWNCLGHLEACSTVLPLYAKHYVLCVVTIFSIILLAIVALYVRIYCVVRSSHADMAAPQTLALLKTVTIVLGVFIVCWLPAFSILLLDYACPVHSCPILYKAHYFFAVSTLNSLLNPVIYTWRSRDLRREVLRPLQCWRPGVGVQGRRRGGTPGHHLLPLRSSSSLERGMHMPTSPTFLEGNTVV

The term EC50 denotes the midpoint of the concentration-response curve. Consider `Cc1cc(NC(=O)CS(=O)(=O)c2cn(Cc3cc(Br)ccc3F)c3ccccc23)no1`, for which, in experiment [1], the 50% effective concentration (EC50) was 1.42 µM (active).
As a reminder, the AC50 is the concentration at which the activity in the assay is half-maximal. `COc1ccc2c3c([nH]c2c1)[C@H](CO)N(C(C)=O)CC31CCN(C(=O)c2cccc(F)c2)CC1`: the AC50 in experiment [2] is 14.1 µM (active).
As usually defined, the IC50 is the point on the concentration scale where inhibition reaches its midpoint. On to `Cc1cc(C)c2nc(NNC(=O)c3ccc(S(=O)(=O)N4CC(C)CC(C)C4)cc3)sc2c1` (centres undefined), for which the 50% inhibitory concentration (IC50) in experiment [3] is 4.16 µM (active); in experiment [5] it was 3.68 µM (active). Further, the EC50 was 697 nM (active) in experiment [4]; 1.35 µM (active) in [6]; > 55.7 µM (not active) in [7]; 3.39 µM (active) in experiment [8]; 2.55 µM (active) in [9]. In addition, the concentration at half-maximal activity (AC50) was 1.96 µM (active) in experiment [10], 2.28 µM (active) in experiment [11], 7.56 µM (active) in experiment [12] and 2.1 µM (active) in experiment [13].
Regarding `Cc1ccccc1/C=C/C(=O)N1CCN(S(=O)(=O)c2ccc(Br)cc2)CC1`, the half-inhibitory concentration (IC50) in [14] is 187 nM (active).
Regarding `CCCCCCCC[N+](C)(C)CCCCCCCC`, the IC50 in experiment [15] was 3.46 µM (active); in experiment [16], 2.18 µM (active); in experiment [17] it was 6.24 µM (inactive); in [18] it was 1.44 µM (active); in [19] it was 4.66 µM (active); in experiment [20] it was 4 µM (active). The IC50 in experiment [21] is 3.22 µM (active); in experiment [22] it was 3.69 µM (active).
Consider `CCCNC(=O)NC(=O)COc1ccc2oc3ccccc3c2c1`, for which the IC50 in experiment [23] is > 100 µM (active).
For `Cc1cc(C(=O)CN(C)CC(=O)NC(C)(C)C)c(C)n1Cc1ccccc1`, in [24], the concentration giving a half-maximal response (EC50) is listed as > 30 µM (not active).
